Measurements reported in EP2522331A1, “Use of resveratrol and niacinamide” (DSM IP Assets B.V., priority 2011, dated 2012).
Like-named read-outs stand apart in the source and are kept apart here.

Tested on: MYO5A
Test: Gene modulation (RT-qPCR, PCR array mQPA H-Melanocyte-64) in normal human epidermal melanocytes (NHEM)
Type: cell-based
Conditions: NHEM cells
Procedure: Normal human epidermal melanocytes were cultivated for 24 hours. Culture medium was then removed and replaced by fresh medium containing the active ingredient to be evaluated or exempt of it (control). Cells were cultivated for additional 72 hours. All experimental conditions were performed in triplicate.
At the end of the cultivation, the cells were harvested and washed with phosphate buffered saline (PBS) solution and immediately frozen at -80 °C. The expression of selected markers was analyzed using RT-qPCR method on mRNA extracted from cells layer for each treatment condition. The differential expression analysis was performed by PCR arrays of the screening format "mQPA H-Melanocyte-64", which focuses on 64 genes selected for their importance in pigmentation and melanocyte biology.
Total RNA was extracted from each sample using TRI-Reagent®. The amount and quality of the RNA was evaluated using a lab-on-a-chip Bioanalyzer (Agilent technologies). Potential contaminants traces of DNA were removed […] The incorporation of fluorescence in amplified DNA was measured continuously during the PCR cycles. […] The value selected for RE calculations is the "output point" (Ct) of the fluorescence curve. For a given marker, the highest is the cycle number; the lowest, is the mRNA quantity. The RE value is expressed in arbitrary units (AU) according to the equation: (((1)/(2)))^NC x 10^6 [formula] Where NC is the number of cycles.
The analysis of the gene expression of selected melanogenesis genes in NEHM cells treated with resveratrol (5 micrograms/ml) on one side, and Niaciamide (0.5 mg/ml) on the other side, has been compared with the gene expression of the same selected melanogenesis genes in NEHM cells treated with a combination of resveratrol (5 micrograms/ml) and Niaciamide (0.5 mg/ml).

[1] = 72 hours treatment, resveratrol 5 µg/ml, niacinamide 0.5 mg/ml, combination 5 µg/ml + 0.5 mg/ml, read-out: MYO5A (expression ratio compared to control)
[2] = 72 hours, resveratrol 5 micrograms/ml alone or niacinamide 0.5 mg/ml alone, read-out: down-regulation of MYO5A (signed change when compared to untreated cells)

| Compound | inhibition at 500 µg/mL [1] [%] | inhibition at 500 µg/mL [2] [%] | inhibition at 5 µg/mL [1] [%] | inhibition at 5 µg/mL [2] [%] |
| --- | --- | --- | --- | --- |
| NC(=O)c1cccnc1 [Niacinamide, 3-pyridinecarboxamide] | 15 | 15 | – | – |
| Oc1ccc(C=Cc2cc(O)cc(O)c2)cc1 [Resveratrol, 3,4',5 trihydroxystilbene] | – | – | 25 | 25 |
